From paper PMC8355706, “CK-3, A Novel Methsulfonyl Pyridine Derivative, Suppresses Hepatocellular Carcinoma Proliferation and Invasion by Blocking the PI3K/AKT/mTOR and MAPK/ERK Pathways” (Frontiers in Oncology, 2021)

Columns and labels:
Type in all cases: biochemical
PI3Kα = molecular target: T1, PI3Kα (Homo sapiens, UniProt P42336); assay: PI3K-Glo ADP detection kinase assay
T1 construct: gene PIK3CA; with Phosphatidylinositol 3-kinase regulatory subunit alpha
Source text: PI3K-Glo ADP detection kinase assay on PI3Kα

ERK = molecular target: T2, ERK; assay: kinase activity profile; ERK assay not described
T2 construct: gene MAPK1; enzyme source and assay not described; ERK2 used only for docking
Source text: kinase activity profile; ERK assay not described on ERK

PI3Kβ = molecular target: T3, PI3Kβ (Homo sapiens, UniProt P42338); assay: PI3K-Glo ADP detection kinase assay
T3 construct: gene PIK3CB; with Phosphatidylinositol 3-kinase regulatory subunit alpha
Source text: PI3K-Glo ADP detection kinase assay on PI3Kβ

PI3Kδ = molecular target: T4, PI3Kδ (Homo sapiens, UniProt O00329); assay: PI3K-Glo ADP detection kinase assay
T4 construct: gene PIK3CD; with Phosphatidylinositol 3-kinase regulatory subunit alpha
Source text: PI3K-Glo ADP detection kinase assay on PI3Kδ

PI3Kγ = molecular target: T5, PI3Kγ (Homo sapiens, UniProt P48736); assay: PI3K-Glo ADP detection kinase assay
T5 construct: gene PIK3CG
Source text: PI3K-Glo ADP detection kinase assay on PI3Kγ

T4 sequence (O00329 whole entry): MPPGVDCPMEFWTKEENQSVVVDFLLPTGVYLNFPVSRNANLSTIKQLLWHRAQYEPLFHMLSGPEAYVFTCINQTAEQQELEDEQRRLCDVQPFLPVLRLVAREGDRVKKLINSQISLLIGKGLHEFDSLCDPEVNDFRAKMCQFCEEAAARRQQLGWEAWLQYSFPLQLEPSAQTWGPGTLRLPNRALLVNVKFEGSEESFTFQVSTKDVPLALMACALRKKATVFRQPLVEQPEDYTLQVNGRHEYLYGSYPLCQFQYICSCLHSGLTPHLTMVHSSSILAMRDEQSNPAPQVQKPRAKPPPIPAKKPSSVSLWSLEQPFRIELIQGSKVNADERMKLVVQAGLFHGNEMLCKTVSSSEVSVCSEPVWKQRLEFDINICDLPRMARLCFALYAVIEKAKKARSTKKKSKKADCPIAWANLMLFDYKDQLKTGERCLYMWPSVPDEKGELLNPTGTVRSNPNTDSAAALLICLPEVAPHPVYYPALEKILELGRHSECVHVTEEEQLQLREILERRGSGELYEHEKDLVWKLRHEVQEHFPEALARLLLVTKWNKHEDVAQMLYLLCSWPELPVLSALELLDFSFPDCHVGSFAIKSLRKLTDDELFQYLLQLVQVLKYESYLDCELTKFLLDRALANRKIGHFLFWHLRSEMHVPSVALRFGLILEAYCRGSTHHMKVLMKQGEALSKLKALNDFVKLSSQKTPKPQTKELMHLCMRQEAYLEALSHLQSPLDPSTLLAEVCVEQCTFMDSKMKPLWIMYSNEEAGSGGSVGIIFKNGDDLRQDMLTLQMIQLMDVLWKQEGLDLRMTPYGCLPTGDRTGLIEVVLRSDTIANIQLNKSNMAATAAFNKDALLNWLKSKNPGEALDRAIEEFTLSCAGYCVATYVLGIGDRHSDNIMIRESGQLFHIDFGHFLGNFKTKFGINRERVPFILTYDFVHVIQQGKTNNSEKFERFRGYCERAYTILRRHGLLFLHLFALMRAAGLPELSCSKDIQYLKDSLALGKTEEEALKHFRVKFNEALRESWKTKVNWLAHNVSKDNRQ
T4 sequence (P27986 2-724 partner): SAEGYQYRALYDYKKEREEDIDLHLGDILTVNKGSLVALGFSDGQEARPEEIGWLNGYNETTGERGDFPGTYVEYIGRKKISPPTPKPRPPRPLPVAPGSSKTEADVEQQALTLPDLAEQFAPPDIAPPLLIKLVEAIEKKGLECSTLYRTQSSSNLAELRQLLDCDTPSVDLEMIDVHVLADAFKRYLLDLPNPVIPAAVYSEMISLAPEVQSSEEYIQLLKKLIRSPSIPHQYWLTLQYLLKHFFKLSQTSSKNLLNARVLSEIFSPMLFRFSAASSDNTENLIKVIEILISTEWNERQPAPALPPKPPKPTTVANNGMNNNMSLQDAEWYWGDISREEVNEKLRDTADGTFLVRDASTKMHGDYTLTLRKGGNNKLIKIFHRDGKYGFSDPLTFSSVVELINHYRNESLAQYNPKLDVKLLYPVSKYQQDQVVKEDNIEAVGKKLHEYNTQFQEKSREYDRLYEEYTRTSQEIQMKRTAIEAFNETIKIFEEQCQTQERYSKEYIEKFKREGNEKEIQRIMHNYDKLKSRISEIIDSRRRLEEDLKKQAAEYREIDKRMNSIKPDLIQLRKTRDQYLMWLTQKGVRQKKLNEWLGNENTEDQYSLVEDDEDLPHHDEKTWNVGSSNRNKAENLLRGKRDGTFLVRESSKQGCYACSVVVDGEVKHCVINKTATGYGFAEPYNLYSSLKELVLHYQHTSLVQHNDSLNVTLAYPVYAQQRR
T3 sequence (P42338 whole entry): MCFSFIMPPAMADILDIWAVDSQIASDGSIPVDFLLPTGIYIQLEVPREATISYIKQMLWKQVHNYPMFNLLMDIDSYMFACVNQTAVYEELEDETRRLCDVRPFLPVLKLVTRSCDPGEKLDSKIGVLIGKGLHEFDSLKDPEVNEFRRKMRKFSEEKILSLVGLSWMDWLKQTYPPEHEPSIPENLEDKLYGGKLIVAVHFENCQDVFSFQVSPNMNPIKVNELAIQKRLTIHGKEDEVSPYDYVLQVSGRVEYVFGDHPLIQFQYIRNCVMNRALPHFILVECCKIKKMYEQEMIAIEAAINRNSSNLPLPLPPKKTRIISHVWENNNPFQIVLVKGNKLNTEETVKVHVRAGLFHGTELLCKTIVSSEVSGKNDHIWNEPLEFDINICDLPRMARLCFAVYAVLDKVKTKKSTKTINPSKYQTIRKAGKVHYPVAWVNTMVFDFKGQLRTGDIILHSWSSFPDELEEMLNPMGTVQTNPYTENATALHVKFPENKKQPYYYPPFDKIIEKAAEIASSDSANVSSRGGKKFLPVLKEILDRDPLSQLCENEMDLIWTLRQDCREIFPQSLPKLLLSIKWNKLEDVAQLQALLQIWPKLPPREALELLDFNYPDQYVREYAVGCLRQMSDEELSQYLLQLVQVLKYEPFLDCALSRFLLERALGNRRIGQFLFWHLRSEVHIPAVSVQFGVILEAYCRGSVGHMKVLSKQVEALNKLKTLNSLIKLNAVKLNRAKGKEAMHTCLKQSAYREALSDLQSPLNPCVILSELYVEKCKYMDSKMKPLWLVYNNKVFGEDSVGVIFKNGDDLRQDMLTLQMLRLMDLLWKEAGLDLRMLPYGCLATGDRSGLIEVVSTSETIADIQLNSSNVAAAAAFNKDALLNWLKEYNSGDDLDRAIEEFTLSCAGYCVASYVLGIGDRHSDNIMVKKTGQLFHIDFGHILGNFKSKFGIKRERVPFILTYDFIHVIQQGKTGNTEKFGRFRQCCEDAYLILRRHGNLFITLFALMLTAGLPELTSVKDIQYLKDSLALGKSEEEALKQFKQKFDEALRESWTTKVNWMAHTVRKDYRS
T3 sequence (P27986 2-724 partner): as the sequence (P27986 2-724 partner) above
T1 sequence (P42336 whole entry): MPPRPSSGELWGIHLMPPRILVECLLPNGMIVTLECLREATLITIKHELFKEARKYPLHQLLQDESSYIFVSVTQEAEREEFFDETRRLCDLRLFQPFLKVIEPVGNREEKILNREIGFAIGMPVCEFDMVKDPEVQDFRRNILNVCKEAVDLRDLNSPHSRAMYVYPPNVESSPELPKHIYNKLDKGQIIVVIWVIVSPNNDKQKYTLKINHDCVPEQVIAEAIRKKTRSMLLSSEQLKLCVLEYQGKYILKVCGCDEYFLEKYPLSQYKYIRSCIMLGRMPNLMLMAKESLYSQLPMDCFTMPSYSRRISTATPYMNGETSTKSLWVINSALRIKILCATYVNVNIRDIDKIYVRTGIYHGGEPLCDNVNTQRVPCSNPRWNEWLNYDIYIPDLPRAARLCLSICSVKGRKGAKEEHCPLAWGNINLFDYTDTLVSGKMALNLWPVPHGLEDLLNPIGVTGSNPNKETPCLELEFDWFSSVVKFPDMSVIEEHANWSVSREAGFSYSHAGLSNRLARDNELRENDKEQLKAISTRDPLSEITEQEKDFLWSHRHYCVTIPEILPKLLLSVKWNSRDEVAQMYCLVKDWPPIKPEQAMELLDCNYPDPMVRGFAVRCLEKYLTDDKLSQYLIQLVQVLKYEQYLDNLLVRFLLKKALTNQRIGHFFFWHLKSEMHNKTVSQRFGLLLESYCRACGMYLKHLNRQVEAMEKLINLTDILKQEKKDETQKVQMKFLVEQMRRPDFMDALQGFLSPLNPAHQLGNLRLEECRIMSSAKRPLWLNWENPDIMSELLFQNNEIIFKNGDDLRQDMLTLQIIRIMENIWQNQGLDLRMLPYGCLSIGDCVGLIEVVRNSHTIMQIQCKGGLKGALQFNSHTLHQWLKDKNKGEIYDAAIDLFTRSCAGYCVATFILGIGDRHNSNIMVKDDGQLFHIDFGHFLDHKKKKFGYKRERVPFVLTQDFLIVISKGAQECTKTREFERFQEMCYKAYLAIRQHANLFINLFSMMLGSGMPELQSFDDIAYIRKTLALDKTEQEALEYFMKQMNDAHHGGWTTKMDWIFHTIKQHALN
T1 sequence (P27986 2-724 partner): as the sequence (P27986 2-724 partner) above
T5 sequence (P48736 whole entry): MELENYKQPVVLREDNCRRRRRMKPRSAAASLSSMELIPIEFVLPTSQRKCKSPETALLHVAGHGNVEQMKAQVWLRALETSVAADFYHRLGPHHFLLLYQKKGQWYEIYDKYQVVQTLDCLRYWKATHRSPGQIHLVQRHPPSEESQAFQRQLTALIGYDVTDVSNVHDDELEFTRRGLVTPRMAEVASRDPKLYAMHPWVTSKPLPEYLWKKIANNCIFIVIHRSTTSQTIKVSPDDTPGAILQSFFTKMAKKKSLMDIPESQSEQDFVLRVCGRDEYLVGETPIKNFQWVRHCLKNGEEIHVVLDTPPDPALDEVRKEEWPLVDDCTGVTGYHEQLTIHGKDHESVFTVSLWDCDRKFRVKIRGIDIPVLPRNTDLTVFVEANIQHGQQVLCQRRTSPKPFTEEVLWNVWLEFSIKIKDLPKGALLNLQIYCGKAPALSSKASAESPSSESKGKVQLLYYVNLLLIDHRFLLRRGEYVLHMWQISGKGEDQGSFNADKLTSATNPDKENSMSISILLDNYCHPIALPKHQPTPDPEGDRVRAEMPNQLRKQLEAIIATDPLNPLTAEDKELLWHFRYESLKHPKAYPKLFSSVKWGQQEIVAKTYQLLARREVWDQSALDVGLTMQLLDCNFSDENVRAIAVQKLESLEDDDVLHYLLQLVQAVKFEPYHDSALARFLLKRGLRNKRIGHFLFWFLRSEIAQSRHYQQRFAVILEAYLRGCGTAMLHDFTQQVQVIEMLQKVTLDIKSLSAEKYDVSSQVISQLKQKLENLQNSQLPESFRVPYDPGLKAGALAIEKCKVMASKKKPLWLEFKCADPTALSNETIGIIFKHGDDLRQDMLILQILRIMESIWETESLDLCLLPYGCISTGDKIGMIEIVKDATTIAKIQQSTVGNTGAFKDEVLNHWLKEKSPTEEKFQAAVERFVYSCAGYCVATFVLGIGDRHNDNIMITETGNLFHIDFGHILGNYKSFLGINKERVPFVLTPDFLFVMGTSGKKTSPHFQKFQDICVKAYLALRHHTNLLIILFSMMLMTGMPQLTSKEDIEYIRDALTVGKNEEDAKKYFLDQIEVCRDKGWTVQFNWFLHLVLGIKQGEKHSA

## COc1ncc(-c2ccc(NC(=O)/C=C/c3cccnc3)c(-n3ccnc3)c2)cc1NS(C)(=O)=O [CK-3]
PI3Kα
  IC50: 6.71 µM
ERK
  IC50: 5.67 µM
PI3Kβ
  IC50: > 10 µM
PI3Kδ
  IC50: 4.67 µM
PI3Kγ
  IC50: > 10 µM
